The values that follow are results of earlier work, collected in patent publication US7364877B2, “Polynucleotides encoding disorazole polyketide synthase polypeptides” (Kosan Biosciences, Inc., priority 2002, dated 2008).

For one series, the system named is mammalian cell. The note with it: mammalian cells.
Series [1] concerns filamentous fungi belonging to the Ascomycetes, Basidiomycetes, Zygomycetes, Oomycetes, and Deuteromycetes families. The note with it: including filamentous fungi.

Turning to `C/C=C/[C@H](O)C(C)(C)[C@@H]1C\C=C/C=C\C=C\[C@H](OC)Cc2nc(co2)C(=O)O[C@H](C(C)(C)[C@@H](O)/C=C/C)C/C=C\[C@H]2O[C@H]2/C=C/C=C\c2nc(co2)C(=O)O1` [Disorazole A, disorazole A], the activity against yeast entry with yeast is given as “not highly active”. In addition, the activity against bacteria result in the series on bacteria was “not highly active”. In the series on mammalian cell, the “mammalian cell cytotoxic activity (MIC)” value is 0.003 to 0.03 ng/mL. Besides, the “activity against different fungi (MIC)” value in series [1] was 100 to 1000 ng/mL.
